These results are taken from patent publication US11135234B2, “Effective aminoglycoside antibiotic for multidrug-resistant bacteria” (MICROBIAL CHEMISTRY RESEARCH FOUNDATION, priority 2015, dated 2021).

The structures appear in SMILES notation. Converted amounts (≈) assume the structure as drawn.

One experiment concerns P. aeruginosa MSC17707. The experiment can be described thus: MIC, agar plate dilution method, P. aeruginosa MSC17707. The class given is cell-based, Pseudomonas aeruginosa. Conditions: for MIC: Pseudomonas aeruginosa, MSC17707, P. aeruginosa MSC17707, AMK-resistant, read-out: minimal inhibitory concentration (MIC). In short, it runs like this: (§1)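 Read-out is the lowest compound concentration inhibiting growth (MIC, μg/mL), obtained by the agar plate dilution procedure of the Japan Society of Chemotherapy.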

In a further experiment the test system is S. aureus RN4220/pMS520. The experiment in a line: MIC, agar plate dilution method, S. aureus RN4220/pMS520. To be noted: for MIC: Staphylococcus aureus, MRSA, read-out: minimal inhibitory concentration (MIC), S. aureus RN4220/pMS520, MRSA. In kind it is cell-based, Staphylococcus aureus. The method in brief: as §1
The next experiment relates to S. marcescens TH-0447. The experiment in a line: MIC, agar plate dilution method, S. marcescens TH-0447. The class given is cell-based, Serratia marcescens. Conditions: for MIC: Serratia marcescens, TH0447, S. marcescens TH-0447, AMK-resistant, read-out: minimal inhibitory concentration (MIC). The method in brief:
as §1

For experiment [1], the system named is K. pneumoniae ATCC BAA-2146. The experiment can be described thus: MIC, agar plate dilution method, K. pneumoniae ATCC BAA-2146. Conditions: for MIC: Klebsiella pneumoniae, ATCCBAA2146, K. pneumoniae ATCC BAA-2146, NDM-producing strain, read-out: minimal inhibitory concentration (MIC). In kind it is cell-based, Klebsiella pneumoniae. The method in brief: as §1

A further experiment concerns P. aeruginosa PAO1. The experiment can be described thus: MIC, agar plate dilution method, P. aeruginosa PAO1. In kind it is cell-based, Pseudomonas aeruginosa. Conditions: for MIC: Pseudomonas aeruginosa, PAO1, P. aeruginosa PAO1, Sensitive bacterium, read-out: minimal inhibitory concentration (MIC). The method in brief:
as §1

Another experiment concerns P. aeruginosa MSC01035. The experiment in a line: MIC, agar plate dilution method, P. aeruginosa MSC01035. In kind it is cell-based, Pseudomonas aeruginosa. Conditions: P. aeruginosa MSC01035, ABK-resistant; for MIC: Pseudomonas aeruginosa, read-out: minimal inhibitory concentration (MIC). The method in brief:
as §1

For experiment [2], the system named is A. baumannii ATCC BAA-1710. The experiment can be described thus: MIC, agar plate dilution method, A. baumannii ATCC BAA-1710. Conditions: for MIC: Acinetobacter baumannii, ATCCBAA1710, A. baumannii ATCC BAA-1710, MDRA, read-out: minimal inhibitory concentration (MIC). In kind it is cell-based, Acinetobacter baumannii. The method in brief:
as §1

In another experiment the test system is S. aureus RN4220. The experiment can be described thus: MIC, agar plate dilution method, S. aureus RN4220. In kind it is cell-based, Staphylococcus aureus. Conditions: for MIC: Staphylococcus aureus, RN4220, S. aureus RN4220, Sensitive bacterium, read-out: minimal inhibitory concentration (MIC). In short, it runs like this: as §1
A further experiment concerns E. coli JM109/pMW218. The experiment can be described thus: MIC, agar plate dilution method, E. coli JM109/pMW218. Conditions: for MIC: Escherichia coli, JM109/PMW218, E. coli JM109/pMW218, Sensitive bacterium, read-out: minimal inhibitory concentration (MIC). In kind it is cell-based, Escherichia coli. The method in brief:
as §1

Experiment [3] concerns K. pneumoniae ATCC BAA-1705. The experiment in a line: MIC, agar plate dilution method, K. pneumoniae ATCC BAA-1705. In kind it is cell-based, Klebsiella pneumoniae. Conditions: for MIC: Klebsiella pneumoniae, ATCCBAA1705, K. pneumoniae ATCC BAA-1705, KPC-producing strain, read-out: minimal inhibitory concentration (MIC). The method in brief: as §1
The next experiment concerns S. marcescens GN6944. The experiment in a line: MIC, agar plate dilution method, S. marcescens GN6944. Conditions: S. marcescens GN6944, GM-resistant; for MIC: Serratia marcescens, read-out: minimal inhibitory concentration (MIC). In kind it is cell-based, Serratia marcescens. In short, it runs like this: as §1
The test system of the next experiment is P. aeruginosa PAO1/GN315. The experiment can be described thus: MIC, agar plate dilution method, P. aeruginosa PAO1/GN315. In kind it is cell-based, Pseudomonas aeruginosa. To be noted: for MIC: Pseudomonas aeruginosa, read-out: minimal inhibitory concentration (MIC), P. aeruginosa PAO1/GN315, AMK-resistant. In short, it runs like this: as §1
A further experiment concerns S. aureus MF490. The experiment can be described thus: MIC, agar plate dilution method, S. aureus MF490. The class given is cell-based, Staphylococcus aureus. To be noted: for MIC: Staphylococcus aureus, MRSA, read-out: minimal inhibitory concentration (MIC). The method in brief: as §1
The next experiment deals with E. faecium ATCC19434. The experiment can be described thus: MIC, agar plate dilution method, E. faecium ATCC19434. The class given is cell-based, Enterococcus faecium. To be noted: for MIC: Enterococcus faecium, ATCC19434, E. faecium ATCC19434, read-out: minimal inhibitory concentration (MIC). The method in brief:
as §1

Turning to `CNCC(=O)N[C@@H]1C(CO)O[C@H](OC2O[C@H]3C[C@H](N)[C@@H](O[C@@H]4C(N)C[C@@H](N)C[C@H]4O)OC3C(O)C2NC)C(O)[C@H]1O` (stereo partly drawn) [Compound V1-p, 6-deoxy-5-epi-4″-N-sarcosylapramycin], the MIC with P. aeruginosa MSC17707 stood at 2 µg/mL (≈ 3.36 µM); in the experiment on S. aureus RN4220/pMS520 it was 1 µg/mL (≈ 1.68 µM); in the experiment with S. marcescens TH-0447 it was 8 µg/mL (≈ 13.5 µM); in [1] it was 1 µg/mL (≈ 1.68 µM); in the experiment on P. aeruginosa PAO1 it was 2 µg/mL (≈ 3.36 µM); in the experiment with P. aeruginosa MSC01035 it was 4 µg/mL (≈ 6.73 µM). Moreover, the MIC was found to be 4 µg/mL (≈ 6.73 µM) in experiment [2]; 1 µg/mL (≈ 1.68 µM) in the experiment with S. aureus RN4220; 1 µg/mL (≈ 1.68 µM) with E. coli JM109/pMW218; 1 µg/mL (≈ 1.68 µM) in experiment [3]; 4 µg/mL (≈ 6.73 µM) with S. marcescens GN6944; 4 µg/mL (≈ 6.73 µM) in the experiment on P. aeruginosa PAO1/GN315. In addition, the MIC was 4 µg/mL (≈ 6.73 µM) in the experiment on S. aureus MF490 and 8 µg/mL (≈ 13.5 µM) in the experiment with E. faecium ATCC19434.
In the case of `CNC1C(O[C@H]2OC(CO)[C@@H](NC(=O)CCN)[C@H](O)C2O)O[C@H]2C[C@H](N)[C@@H](O[C@@H]3C(N)C[C@@H](N)C[C@H]3O)OC2C1O` (stereo partly drawn) [Compound V1-q, 4″-N-(β-alanyl)-6-deoxy-5-epiapramycin], the MIC in the experiment with P. aeruginosa MSC17707 is 2 µg/mL (≈ 3.36 µM); with S. aureus RN4220/pMS520, 1 µg/mL (≈ 1.68 µM); in the experiment with S. marcescens TH-0447 it was 8 µg/mL (≈ 13.5 µM); in experiment [1], 1 µg/mL (≈ 1.68 µM); in the experiment on P. aeruginosa PAO1, 2 µg/mL (≈ 3.36 µM); with P. aeruginosa MSC01035 it was 4 µg/mL (≈ 6.73 µM). Also, the MIC is 4 µg/mL (≈ 6.73 µM) in experiment [2]; 1 µg/mL (≈ 1.68 µM) with S. aureus RN4220; 1 µg/mL (≈ 1.68 µM) with E. coli JM109/pMW218; 1 µg/mL (≈ 1.68 µM) in experiment [3]; 4 µg/mL (≈ 6.73 µM) with S. marcescens GN6944; 4 µg/mL (≈ 6.73 µM) with P. aeruginosa PAO1/GN315. The MIC with S. aureus MF490 is 4 µg/mL (≈ 6.73 µM); with E. faecium ATCC19434, 8 µg/mL (≈ 13.5 µM).
Consider `CNC1C(O[C@H]2OC(CO)[C@@H](NC(=O)[C@@H](O)CN)[C@H](O)C2O)O[C@H]2C[C@H](N)[C@@H](O[C@@H]3C(N)C[C@@H](N)C[C@H]3O)OC2C1O` (stereo partly drawn) [Compound V1-r, 6-deoxy-5-epi-4″-N-(L-isoseryl)apramycin], for which the MIC stood at 2 µg/mL (≈ 3.28 µM) in the experiment on P. aeruginosa MSC17707; 1 µg/mL (≈ 1.64 µM) in the experiment on S. aureus RN4220/pMS520; 8 µg/mL (≈ 13.1 µM) in the experiment with S. marcescens TH-0447; 1 µg/mL (≈ 1.64 µM) in [1]; 2 µg/mL (≈ 3.28 µM) with P. aeruginosa PAO1; 4 µg/mL (≈ 6.55 µM) in the experiment with P. aeruginosa MSC01035. Besides, the MIC in experiment [2] turned out to be 4 µg/mL (≈ 6.55 µM); with S. aureus RN4220, 1 µg/mL (≈ 1.64 µM); in the experiment with E. coli JM109/pMW218 it was 0.5 µg/mL (≈ 0.819 µM); in [3] it was 1 µg/mL (≈ 1.64 µM); in the experiment with S. marcescens GN6944, 8 µg/mL (≈ 13.1 µM); with P. aeruginosa PAO1/GN315, 2 µg/mL (≈ 3.28 µM). Also, the values for the MIC with S. aureus MF490 and with E. faecium ATCC19434 were 4 µg/mL (≈ 6.55 µM) and 8 µg/mL (≈ 13.1 µM), respectively.
As to `CNC1C(O[C@H]2OC(CO)[C@@H](NC(=O)[C@H](O)CN)[C@H](O)C2O)O[C@H]2C[C@H](N)[C@@H](O[C@@H]3C(N)C[C@@H](N)C(O)[C@H]3O)OC2C1O` (stereo partly drawn) [Compound V1-s, 5-epi-4″-N-(D-isoseryl)apramycin], the MIC was 2 µg/mL (≈ 3.19 µM) in the experiment on P. aeruginosa MSC17707; 1 µg/mL (≈ 1.6 µM) in the experiment with S. aureus RN4220/pMS520; 8 µg/mL (≈ 12.8 µM) in the experiment on S. marcescens TH-0447; 1 µg/mL (≈ 1.6 µM) in [1]; 1 µg/mL (≈ 1.6 µM) in the experiment with P. aeruginosa PAO1; 4 µg/mL (≈ 6.38 µM) in the experiment with P. aeruginosa MSC01035. For the same compound, the MIC amounted to 4 µg/mL (≈ 6.38 µM) in experiment [2]; 1 µg/mL (≈ 1.6 µM) in the experiment with S. aureus RN4220; 0.5 µg/mL (≈ 0.798 µM) with E. coli JM109/pMW218; 0.5 µg/mL (≈ 0.798 µM) in experiment [3]; 4 µg/mL (≈ 6.38 µM) with S. marcescens GN6944; 2 µg/mL (≈ 3.19 µM) in the experiment on P. aeruginosa PAO1/GN315. For the same compound, the results for the MIC in the experiment on S. aureus MF490 and with E. faecium ATCC19434 were 4 µg/mL (≈ 6.38 µM) and 16 µg/mL (≈ 25.5 µM), respectively.
For the compound `CNC1C(OC2OC(CO)C(NC(=N)N)C(O)C2O)OC2CC(N)C(OC3C(N)CC(N)C(O)C3N)OC2C1O` (stereo not drawn) [Compound W2-a, 5-amino-4″-deamino-5-deoxy-5-epi-4″-guanidinoapramycin], the “minimal inhibitory concentration (MIC)” value was 8 µg/mL (≈ 13.8 µM) with P. aeruginosa MSC17707 (P. aeruginosa MSC17707, AMK-resistant); 1 µg/mL (≈ 1.72 µM) with S. aureus RN4220/pMS520 (S. aureus RN4220/pMS520, MRSA); 4 µg/mL (≈ 6.89 µM) in the experiment with S. marcescens TH-0447 (S. marcescens TH-0447, AMK-resistant); 1 µg/mL (≈ 1.72 µM) in [1] (K. pneumoniae ATCC BAA-2146, NDM-producing strain); 4 µg/mL (≈ 6.89 µM) in the experiment on P. aeruginosa PAO1 (P. aeruginosa PAO1, Sensitive bacterium); 4 µg/mL (≈ 6.89 µM) in the experiment on P. aeruginosa MSC01035. Further, the “minimal inhibitory concentration (MIC)” value in experiment [2] (A. baumannii ATCC BAA-1710, MDRA) stood at 8 µg/mL (≈ 13.8 µM); with S. aureus RN4220 (S. aureus RN4220, Sensitive bacterium) it was 1 µg/mL (≈ 1.72 µM); in the experiment on E. coli JM109/pMW218 (E. coli JM109/pMW218, Sensitive bacterium), 1 µg/mL (≈ 1.72 µM); in experiment [3] (K. pneumoniae ATCC BAA-1705, KPC-producing strain), 1 µg/mL (≈ 1.72 µM); with S. marcescens GN6944 it was 4 µg/mL (≈ 6.89 µM); with P. aeruginosa PAO1/GN315 (P. aeruginosa PAO1/GN315, AMK-resistant) it was 4 µg/mL (≈ 6.89 µM). The “minimal inhibitory concentration (MIC)” value in the experiment on S. aureus MF490 (S. aureus MF490, MRSA) was 4 µg/mL (≈ 6.89 µM); in the experiment with E. faecium ATCC19434 (E. faecium ATCC19434), 8 µg/mL (≈ 13.8 µM).
